# Assays:
# Format in all cases: cell-based, human
# [1] = tested on: ribosomal protein; assay: Acetyl-lysine western blot of ribopellets (ribosomal protein acetylation); conditions: SKBR3 cells; for ribosomal protein acetylation, including the band that co-migrates with RPL24: western blot of ribopellets (FIG. 4c,d)
# Experimental: (§1) Previous studies have shown that pan-inhibitors of class I and II histone deacetylases, like TSA, can rapidly destabilize a number of oncogenic transcripts including HER2 in a cycloheximide-dependent manner (FIG. 9). […] Thus, SKBR3 cells were treated with TSA to evaluate polysome protein acetylation and determine if, similar to RPL24 depletion, histone deacetylase inhibition can affect ribosome assembly dynamics. To detect early (2 h) ribosome or polysome acetylation following histone deacetylase inhibition treatment (1 μM TSA), SKBR3 polysomes were isolated using a discontinuous sucrose gradient as previously described. […] Mass spectrometry studies indicate that 15 ribosomal proteins, 11 large subunit proteins (RPL24 included) and 4 small subunit proteins, underwent at least a two-fold induction in acetylation following 2 h or 6 h TSA treatment (1 μM) (FIG. 4b, FIG. 10a-q).
# (§2) Like TSA, the HDAC6 (class IIb)-selective inhibitors, Tubacin and Compound 101, as well as HDAC6 siRNA, all induce tubulin acetylation as expected as well as ribosomal protein acetylation, including the band that co-migrates with RPL24 (FIG. 4c,d, indicated by arrows). […] Thus, the tubulin acetylating effects of pan-histone deacetylase inhibition, known to be mediated by inhibition or knockdown of HDAC6, correspond to the observed ribosome and RPL24 acetylation responses induced by TSA.
# (§3) Cells are lysed in RIPA buffer (10 mM Tris-HCL (pH 8.0), 1 mM EDTA, 0.5 mM EGTA, 1% triton X-100, 0.1% sodium deoxycholate, 0.1% SDS, 140 mM NaCl, 20 mM NaF, Complete EDTA-free protease inhibitor tablets (Roche Diagnostics Corp., Basel, Switzerland) and the phosphatase inhibitor cocktail PhosSTOP (Roche)), the latter two as indicated by the manufacturer's protocol. Equal amounts of protein are diluted in 2× sample buffer. Immunoblots on PVDF (Polyvinyldene Fluoride) membranes are blocked with nonfat milk in tris-buffered saline with 0.05% tween-20 (TBST). The following antibodies are incubated with membranes in 5% nonfat milk in TBST: RPL24 (Proteintech, Chicago, Ill.), Cyclin D1, Rack1, RPL4 (Santa Cruz Biotechnology, Santa Cruz, Calif.), NBS1, GAPDH (EMD Millipore Corporation, Chicago, Ill.), Survivin, β-tubulin, acetyl-lysine, eIF6, acetyl-H2B, H2B, (Cell Signaling Technology, Boston, Mass.), acetyl-tubulin, tubulin (Sigma Aldrich (St. Louis, Mo.))
# Cells, plated at […] confluency, are treated as indicated. After treatment, cells are treated with 50 μg/ml cycloheximide for 15 minutes. Cells are lysed with a buffer containing 10 mM HEPES, 10 mM KCl, 75 mM NaCl, 10 mM MgCl2, 0.35% NP40, pH 7.9 supplemented with Complete EDTA-free protease inhibitor tablets, PhosSTOP phosphatase inhibitor tablets (Roche) per manufacturer's instructions, 50 μg/ml cycloheximide, SUPERase RNase inhibitors (Life Technologies) per manufacturer's instructions, 15 μM TSA, and 5 mM nicotinimide to inhibit histone deacetylases. Supernatants are collected as cytoplasmic preparations. Where indicated, pellets containing nuclei are resuspended in RIPA buffer (described above). The suspension is spun at 13,000 rpm for 5 min and supernatants are collected as nuclear preparations.
# Ribosomes are subsequently isolated from cytoplasmic preparations as described previously. Briefly, lysates are layered on top of a 12% and 33% discontinuous sucrose gradient and spun at 38,000 rpm for 2 h. The resulting polysome pellet is then resuspended, stripped of RNA with acetic acid, and then pelleted with acetone. The pellet is then resuspended in 8 M urea, 2% CHAPS, and 25 mM dithiothreitol (DTT).
# FIG. 4: Ribosomal protein acetylation is induced by histone deacetylase inhibition. (a-c) SKBR3 cells were treated with the indicated drugs for the indicated period of time. (d) SKBR3 cells were transfected with the indicated siRNAs and allowed to incubate for 72 hours. (a, c, d). The indicated western blots were performed in ribopellets, total cytoplasmic lysates, or nuclear extracts. […]
# [2] = tested on: tubulin; assay: Western blot for tubulin acetylation in SKBR3 cells; conditions: western blot (FIG. 4c,d)
# Text: as §2, §3
# FIG. 4: Ribosomal protein acetylation is induced by histone deacetylase inhibition. (a-c) SKBR3 cells were treated with the indicated drugs for the indicated period of time. (d) SKBR3 cells were transfected with the indicated siRNAs and allowed to incubate for 72 hours. (a, c, d). The indicated western blots were performed in ribopellets, total cytoplasmic lysates, or nuclear extracts. (b) Mass spectrometry was performed on ribopellets as described in materials and methods and in FIG. 6. The fold change in acetylated peptide to total peptide case by TSA treatment is plotted. Only proteins that underwent at least a two-fold induction upon TSA treatment are shown. Error bars represent the standard error of the mean for three biological replicates.
# [3] = tested on: histone H2B; assay: Western blot for histone H2B acetylation in SKBR3 cells; conditions: western blot (FIG. 4c)
# Text: as §2
# Cells are lysed in RIPA buffer (10 mM Tris-HCL (pH 8.0), 1 mM EDTA, 0.5 mM EGTA, 1% triton X-100, 0.1% sodium deoxycholate, 0.1% SDS, 140 mM NaCl, 20 mM NaF, Complete EDTA-free protease inhibitor tablets (Roche Diagnostics Corp., Basel, Switzerland) and the phosphatase inhibitor cocktail PhosSTOP (Roche)), the latter two as indicated by the manufacturer's protocol. Equal amounts of protein are diluted in 2× sample buffer. Immunoblots on PVDF (Polyvinyldene Fluoride) membranes are blocked with nonfat milk in tris-buffered saline with 0.05% tween-20 (TBST). […]
# [4] = tested on: HER2 mRNA; assay: Northern blot of HER2 transcript levels; conditions: SKBR3 cells, cycloheximide 50 μg/ml, 6 h with TSA 1 μM
# Experimental: as §1
# Cells are harvested and RNA is extracted using Trizol (Life Technologies) per manufacturer's protocol. Northern blots are performed as previously described. Briefly, RNA is then electrophoresed into 1% agarose-formaldehyde gels and transferred onto PVDF membranes. Membranes are then hybridized with ^32P-labelled cDNA probes for HER2 or GAPDH, washed, and visualized by autoradiography.
# SKBR3 cells were treated with TSA (1 μM, 6 h) and/or cycloheximide (CX, 50 μg/ml, 6 h) or with the respective vehicle controls. […]
Structure (SMILES),"ribosomal protein acetylation, including the band that co-migrates with RPL24 [1]",tubulin acetylation [2],ribosomal protein acetylation ([1]; even at a dose of 20 μM (FIG. 4c)),histone H2B acetylation [3],effect on TSA-induced HER2 mRNA decay [4]
O=C(NO)c1cnc(NC2(c3cccc(F)c3)CCCCC2)nc1 [Compound 101],induce,induce,,,
Nc1ccccc1NC(=O)c1ccc(CNC(=O)OCc2cccnc2)cc1 [Entinostat],,without acetylating tubulin,does not alter,induces,
O=C(CCCCCCC(=O)Nc1ccc([C@H]2O[C@@H](CSc3nc(-c4ccccc4)c(-c4ccccc4)o3)C[C@@H](c3ccc(CO)cc3)O2)cc1)NO [Tubacin],induce,induce,,,
C[C@@H]1C[C@@H]([C@H](O)CC2CC(=O)NC(=O)C2)C(=O)[C@@H](C)C1 [cycloheximide],,,,,abrogated

# From patent US20150359794A1, “IMPAIRMENT OF THE LARGE RIBOSOMAL SUBUNIT PROTEIN RPL24 BY DEPLETION OR ACETYLATION” (Buck Institute for Research on Aging, priority 2014, published 2015)
